US20110136916A1, “6-SHOGAOL FOR USING IN A METHOD FOR THE TREATMENT OF LEUKEMIA” (China Pharmaceutical University, priority 2009, published 2011)
“Also recorded” adds a separate entry of the source. Read-outs that look alike come from different tables or passages of the source.

Experiments:
[1] = tested on: human colon carcinoma COLO 205 cells; settings: read-out: IC50 for inhibiting the growth of COLO 205 cells; cited from earlier work
[2] = tested on: peripheral blood lymphocytes (PBMC) of clinical leukemia patients; assay: Annexin V/PI apoptosis of PBMC from leukemia patients; type: cell-based, human; settings: 24 hours
Protocol: After application by the research group and approval by the Ethics Committee of the hospital, the leukemia patients (healthy volunteers) signed the informed consent and their fresh blood was collected and transferred into heparin anticoagulation tubes, then the same volume of serum free D-Hank buffer (preheated at 37° C.) was added to re-suspend the cells, and the suspension was added to the pre-laid human lymphocyte separating medium (preheated at 37° C.), and the volume ratio between the lymphocyte separating medium and the cell suspension should be no lower than 1:1, and the mixture was centrifuged at room temperature (20-30° C.) at 500×g by a horizontal centrifuge for 30 minutes. The upper layer plasma was removed and the white fog layer in the middle was carefully collected and transferred to 5 mL (or 1-2 times of the volume) PBS (or serum free buffer for cell culture), then it was centrifuged at 200×g or 1000 rpm for 10 minutes at room temperature (20-30° C.), and the supernatant was removed, and the obtained precipitation was the peripheral blood lymphocytes (PBMC). The cells were rinsed twice according to the above-mentioned operations at 500×g by the horizontal centrifuge for 10 minutes at room temperature (20-30° C.), subsequently the cells were collected and their cell vitality was detected by using dye exclusion method for living cells (Trypan blue).
The cells were added to a 24-well plate in 3×10^5 cells/mL/well and different concentrations of 6-shogaol (10 and 20 μM) for treatment for 24 hours after they were incubated for 24 hours. Negative control group (the group without drug) and the treatment group with 6-shogaol were set up for PBMCs from different individuals respectively. After the cells were treated with 6-shogaol for 24 hours, they were transferred into 10 mL glass centrifuge tubes and centrifuged at 500 rpm (or 100×g) for 5 minutes to remove the supernatant. The cells were then rinsed with 0.01 M PBS at 500 rpm (or 100×g) for 5 minutes twice. Subsequently, after adding binding solution and staining according to the directions for use of Annexin V/PI double staining kit (BD Company), flow cytometry analysis (Becton Dickinson FACScan Flow Cytometer) was carried out. The FACS data were analyzed by professional operators of the flow cytometer by using FLOWJO software (Tree Star, Calif.) software, the apoptotic rate was counted by the sum of early apoptosis and late apoptosis, and the results were shown in Table 4 and Table 5.

[3] = tested on: human chronic granulocytic leukemia K562; assay: MTT anti-proliferation, K562; type: cell-based; settings: for IC50: K562, MTT, n = 3; for growth inhibition (activities of cells vs control): K562, 1-20 μM
Protocol: (§1) Cells in logarithmic growth phase were collected and then inoculated in 1˜2×10^4 cells/well in a 96-well plate respectively according to the sizes of cells and whether they attached to the wall, the cells were centrifuged and the supernatant was removed after growing for 24 hours, and then drug administration was carried out according to the groups as below: the drug group and the drug free group were set up for tumor cells (the concentrations ranged from 1˜20 μM), 5 or 6 duplicates were set for each group and the cells were incubated for 24 or 72 hours. The supernatant was removed and 100 μl serum free culture solution containing 0.5 mg/ml MTT (tetrazolium) was added for further incubation for 4 hours, subsequently 100 μl DMSO (dimethyl sulfoxide) was added and the plate was kept on the micro-shaker for 10 minutes, and the OD value was determined on a micro-plate reader at the wavelength of 570 nm. Evaluations on the toxicity were carried out on normal human cell line LO-2 and each test was repeated for three times.

[4] = tested on: human acute T cell leukemic cell Jurkat; assay: MTT anti-proliferation, Jurkat; type: cell-based; settings: for growth inhibition (activities of cells vs control): 1-20 μM; for IC50: MTT
Protocol: as §1

melanoma SK-MEL-2 cells = settings: cited from earlier work
[5] = tested on: normal human cell line LO-2; assay: MTT toxicity evaluation on normal cell line LO-2; type: cell-based; settings: for growth inhibition of normal hepatic cell line LO-2: LO-2, 1-20 μM
Protocol: as §1

[6] = tested on: human promyelocytic leukemia cell HL-60; assay: MTT anti-proliferation, HL-60; type: cell-based; settings: for growth inhibition (activities of cells vs control): HL-60, 1-20 μM; for IC50: HL-60, MTT, n = 3
Protocol: as §1

[7] = 24 hours, read-out: Mean IC50 after 24 hours
[8] = 72 hours, read-out: Mean IC50 after 72 hours

SMILES: CCCCC/C=C/C(=O)CCc1ccc(O)c(OC)c1 [6-shogaol]
- IC50 [1]: > 60 µM
- induction of apoptosis of PBMC of leukemia patients (t-test) ([2]; 30 cases of leukemia patients, 10 and 20 μM): significantly induce the apoptosis
- Apoptotic rate of 10 μM 6-shogaol ([2]; PBMC of patient P1, 10 μM): 38.5 ± 3.7a %
- Apoptotic rate of 20 μM 6-shogaol ([2]; PBMC of patient P1, 20 μM): 56.9 ± 2.2a %
- Apoptotic rate of 10 μM 6-shogaol ([2]; PBMC of patient P2, 10 μM): 27.6 ± 1.3a %
- Apoptotic rate of 20 μM 6-shogaol ([2]; PBMC of patient P2, 20 μM): 50.1 ± 5.4a %
- Apoptotic rate of 10 μM 6-shogaol ([2]; PBMC of patient P3, 10 μM): 47.9 ± 1.6a %
- Apoptotic rate of 20 μM 6-shogaol ([2]; PBMC of patient P3, 20 μM): 72.9 ± 3.1a %
- Apoptotic rate of 10 μM 6-shogaol ([2]; PBMC of patient P4, 10 μM): 35.7 ± 3.8a %
- Apoptotic rate of 20 μM 6-shogaol ([2]; PBMC of patient P4, 20 μM): 69.7 ± 1.6a %
- Apoptotic rate of 10 μM 6-shogaol ([2]; PBMC of patient P5, 10 μM): 40.5 ± 6.1a %
- Apoptotic rate of 20 μM 6-shogaol ([2]; PBMC of patient P5, 20 μM): 61.9 ± 4.2a %
- Apoptotic rate of 10 μM 6-shogaol ([2]; PBMC of patient P6, 10 μM): 29.3 ± 1.7a %
- Apoptotic rate of 20 μM 6-shogaol ([2]; PBMC of patient P6, 20 μM): 52.7 ± 2.3a %
- Apoptotic rate of 10 μM 6-shogaol ([2]; PBMC of patient P7, 10 μM): 44.6 ± 3.8a %
- Apoptotic rate of 20 μM 6-shogaol ([2]; PBMC of patient P7, 20 μM): 75.9 ± 1.7a %
- Apoptotic rate of 10 μM 6-shogaol ([2]; PBMC of patient P8, 10 μM): 31.3 ± 2.7a %
- Apoptotic rate of 20 μM 6-shogaol ([2]; PBMC of patient P8, 20 μM): 64.7 ± 2.4a %
- Apoptotic rate of 10 μM 6-shogaol ([2]; PBMC of patient P9, 10 μM): 27.5 ± 2.9a %
- Apoptotic rate of 20 μM 6-shogaol ([2]; PBMC of patient P9, 20 μM): 44.8 ± 3.9a %
- Apoptotic rate of 10 μM 6-shogaol ([2]; PBMC of patient P10, 10 μM): 42.4 ± 3.1a %
- Apoptotic rate of 20 μM 6-shogaol ([2]; PBMC of patient P10, 20 μM): 73.5 ± 3.7a %
- Apoptotic rate of 10 μM 6-shogaol ([2]; PBMC of patient P11, 10 μM): 29.7 ± 2.4a %
- Apoptotic rate of 20 μM 6-shogaol ([2]; PBMC of patient P11, 20 μM): 50.1 ± 3.3ac %
- Apoptotic rate of 10 μM 6-shogaol ([2]; PBMC of patient P12, 10 μM): 49.3 ± 4.1a %
- Apoptotic rate of 20 μM 6-shogaol ([2]; PBMC of patient P12, 20 μM): 80.8 ± 5.1ac %
- Apoptotic rate of 10 μM 6-shogaol ([2]; PBMC of patient P13, 10 μM): 55.9 ± 2.7a %
- Apoptotic rate of 20 μM 6-shogaol ([2]; PBMC of patient P13, 20 μM): 82.9 ± 2.5ac %
- Apoptotic rate of 10 μM 6-shogaol ([2]; PBMC of patient P14, 10 μM): 26.7 ± 1.9a %
- Apoptotic rate of 20 μM 6-shogaol ([2]; PBMC of patient P14, 20 μM): 39.7 ± 2.6ac %
- Apoptotic rate of 10 μM 6-shogaol ([2]; PBMC of patient P15, 10 μM): 34.5 ± 3.1a %
- Apoptotic rate of 20 μM 6-shogaol ([2]; PBMC of patient P15, 20 μM): 47.9 ± 4.2ab %
- Apoptotic rate of 10 μM 6-shogaol ([2]; PBMC of patient P16, 10 μM): 39.3 ± 2.3a %
- Apoptotic rate of 20 μM 6-shogaol ([2]; PBMC of patient P16, 20 μM): 46.7 ± 1.6ab %
- Apoptotic rate of 10 μM 6-shogaol ([2]; PBMC of patient P17, 10 μM): 44.6 ± 3.8a %
- Apoptotic rate of 20 μM 6-shogaol ([2]; PBMC of patient P17, 20 μM): 55.9 ± 1.7ab %
- Apoptotic rate of 10 μM 6-shogaol ([2]; PBMC of patient P18, 10 μM): 33.1 ± 3.7a %
- Apoptotic rate of 20 μM 6-shogaol ([2]; PBMC of patient P18, 20 μM): 54.7 ± 2.6ac %
- Apoptotic rate of 10 μM 6-shogaol ([2]; PBMC of patient P19, 10 μM): 37.9 ± 4.9a %
- Apoptotic rate of 20 μM 6-shogaol ([2]; PBMC of patient P19, 20 μM): 51.8 ± 7.9ac %
- Apoptotic rate of 10 μM 6-shogaol ([2]; PBMC of patient P20, 10 μM): 52.9 ± 2.7a %
- Apoptotic rate of 20 μM 6-shogaol ([2]; PBMC of patient P20, 20 μM): 63.6 ± 1.2ab %
- Apoptotic rate of 10 μM 6-shogaol ([2]; PBMC of patient P21, 10 μM): 31.5 ± 4.3a %
- Apoptotic rate of 20 μM 6-shogaol ([2]; PBMC of patient P21, 20 μM): 44.5 ± 2.4ab %
- Apoptotic rate of 10 μM 6-shogaol ([2]; PBMC of patient P22, 10 μM): 20.5 ± 3.1a %
- Apoptotic rate of 20 μM 6-shogaol ([2]; PBMC of patient P22, 20 μM): 38.5 ± 2.1ac %
- Apoptotic rate of 10 μM 6-shogaol ([2]; PBMC of patient P23, 10 μM): 36.2 ± 5.7a %
- Apoptotic rate of 20 μM 6-shogaol ([2]; PBMC of patient P23, 20 μM): 67.1 ± 3.7ac %
- Apoptotic rate of 10 μM 6-shogaol ([2]; PBMC of patient P24, 10 μM): 42.7 ± 2.4a %
- Apoptotic rate of 20 μM 6-shogaol ([2]; PBMC of patient P24, 20 μM): 58.7 ± 3.9ac %
- Apoptotic rate of 10 μM 6-shogaol ([2]; PBMC of patient P25, 10 μM): 47.8 ± 2.9a %
- Apoptotic rate of 20 μM 6-shogaol ([2]; PBMC of patient P25, 20 μM): 69.1 ± 3.3ac %
- Apoptotic rate of 10 μM 6-shogaol ([2]; PBMC of patient P26, 10 μM): 43.3 ± 4.9a %
- Apoptotic rate of 20 μM 6-shogaol ([2]; PBMC of patient P26, 20 μM): 56.9 ± 5.2ac %
- Apoptotic rate of 10 μM 6-shogaol ([2]; PBMC of patient P27, 10 μM): 30.9 ± 1.7a %
- Apoptotic rate of 20 μM 6-shogaol ([2]; PBMC of patient P27, 20 μM): 47.6 ± 3.6ab %
- Apoptotic rate of 10 μM 6-shogaol ([2]; PBMC of patient P28, 10 μM): 39.6 ± 2.2a %
- Apoptotic rate of 20 μM 6-shogaol ([2]; PBMC of patient P28, 20 μM): 56.3 ± 3.8ac %
- Apoptotic rate of 10 μM 6-shogaol ([2]; PBMC of patient P29, 10 μM): 33.7 ± 3.5a %
- Apoptotic rate of 20 μM 6-shogaol ([2]; PBMC of patient P29, 20 μM): 42.4 ± 2.9ab %
- Apoptotic rate of 10 μM 6-shogaol ([2]; PBMC of patient P30, 10 μM): 28.6 ± 2.9a %
- Apoptotic rate of 20 μM 6-shogaol ([2]; PBMC of patient P30, 20 μM): 51.9 ± 4.2ac %
- IC50 ([3]; Homo sapiens, K562, 24 h, 24 hours, read-out: Mean IC50 after 24 hours): < 10 µM
- IC50 ([3]; Homo sapiens, K562, 72 h, 72 hours, read-out: Mean IC50 after 72 hours): < 5 µM
- growth inhibition (activities of cells vs control) ([3]; 24 hours, FIG. 5): significantly decreased
- growth inhibition (activities of cells vs control) ([3]; 72 hours, FIG. 9): significantly decreased
- IC50 [3, 7]: 8.5 ± 0.8 µM
- IC50 [3, 8]: 5 ± 0.62 µM
- growth inhibition (activities of cells vs control) ([4]; 24 hours, FIG. 3): significantly decreased
- growth inhibition (activities of cells vs control) ([4]; 72 hours, FIG. 7): significantly decreased
- IC50 ([4]; Homo sapiens, 24 h, 24 hours, n = 3, read-out: Mean IC50 after 24 hours): < 10 µM
- IC50 ([4]; Homo sapiens, 72 h, 72 hours, n = 3, read-out: Mean IC50 after 72 hours): < 5 µM
- IC50 ([4]; 24 hours, n = 3, read-out: Mean IC50 after 24 hours): 5.6 ± 0.4 µM
- IC50 ([4]; 72 hours, n = 3, read-out: Mean IC50 after 72 hours): 3.3 ± 0.3 µM
- anti-tumor activities (melanoma SK-MEL-2 cells): certain anti-tumor activities
- growth inhibition of normal hepatic cell line LO-2 ([5]; 24 hours): didn't inhibit the proliferation
- growth inhibition of normal hepatic cell line LO-2 ([5]; 72 hours): didn't inhibit the proliferation
- toxicity on normal hepatic cells LO-2 ([5]; summary statement): No toxic reaction was found; also recorded: low toxicity
- growth inhibition (activities of cells vs control) ([6]; 24 hours, FIG. 2): significantly decreased
- growth inhibition (activities of cells vs control) ([6]; 72 hours, FIG. 6): significantly decreased
- IC50 [6, 7]: 6.93 ± 1.28 µM
- IC50 [6, 8]: 3.7 ± 0.25 µM
- IC50 ([6]; Homo sapiens, HL-60, 24 h, 24 hours, read-out: Mean IC50 after 24 hours): < 10 µM
- IC50 ([6]; Homo sapiens, HL-60, 72 h, 72 hours, read-out: Mean IC50 after 72 hours): < 5 µM
